According to ChEMBL document CHEMBL3352030, “Evaluation of the cyclopentane-1,2-dione as a potential bio-isostere of the carboxylic acid functional group” (Bioorg Med Chem Lett, 2014):

Key:
[1] = biological target: T1, Thromboxane A2 receptor (Homo sapiens, UniProt P21731); test: Inhibition of human TP receptor expressed in QBI-HEK 293A cells assessed as IP3 metabolite level after 1 hr by HTRF assay; assay type: functional, cell-based
T1 sequence (P21731 whole entry): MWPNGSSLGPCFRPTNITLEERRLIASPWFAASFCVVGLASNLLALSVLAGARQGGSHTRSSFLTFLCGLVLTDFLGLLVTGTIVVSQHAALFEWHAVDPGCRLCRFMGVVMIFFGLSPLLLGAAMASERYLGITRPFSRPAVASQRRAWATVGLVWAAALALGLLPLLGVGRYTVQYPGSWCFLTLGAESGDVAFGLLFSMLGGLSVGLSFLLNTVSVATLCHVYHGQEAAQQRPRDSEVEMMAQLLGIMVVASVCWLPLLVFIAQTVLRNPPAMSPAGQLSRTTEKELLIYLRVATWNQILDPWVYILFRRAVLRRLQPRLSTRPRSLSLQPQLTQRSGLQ

[2] = test system: Plasma; test: Stability in CD-1 mouse plasma at 1 uM after 1 hr by LC/MS/MS analysis; assay type: ADME, cell-free
[3] = Dissociation constant, pKa of the compound by potentiometric titration

Work on O=C(O)CCc1cccc2c1CCC(NS(=O)(=O)c1ccc(Cl)cc1)C2 (stereo not given) yielded an IC50 [1] of 2.6 nM.
In the case of O=C1CCC(Cc2cccc(CCNS(=O)(=O)c3ccc(Cl)cc3)c2)=C1O, the IC50 [1] is reported as 54 nM and the Stability [2] is reported as “Stable”.
Work on O=C1CC(c2cccc(CCNS(=O)(=O)c3ccc(Cl)cc3)c2)C=C1O (stereo not given) yielded an IC50 [1] of 1140 nM.
Compound O=C1CCC(Cc2ccc(Br)cc2)=C1O has a pKa [3] of 8.6.
